In patent EP0674651B1, “SUBSTITUTED 6-AZAANDROSTENONES” (priority 1992, dated 1994):
Like-named read-outs stand apart in the source and are kept apart here.

How the values were obtained:
[1] = biological target: T1, human type 1 5α-reductase (Homo sapiens, UniProt P18405); experiment: 5α-reductase in vitro inhibitory activity, human type 1
T1 sequence (P18405 1-259): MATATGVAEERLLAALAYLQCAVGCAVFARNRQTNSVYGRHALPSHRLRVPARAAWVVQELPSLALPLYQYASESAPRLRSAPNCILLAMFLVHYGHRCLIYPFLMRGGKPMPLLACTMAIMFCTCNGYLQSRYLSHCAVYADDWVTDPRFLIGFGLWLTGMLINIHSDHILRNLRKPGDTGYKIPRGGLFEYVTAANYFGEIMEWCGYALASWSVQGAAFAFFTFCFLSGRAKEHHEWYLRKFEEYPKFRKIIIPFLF
Method: (§1) Microsomes were prepared by homogenization of the tissue or cells, followed by differential centrifugation of the homogenate. […] Corresponding incubations were carried out with no test compound as a control study.
For type 2 IC50 measurements, assay components except testosterone were preincubated for 20 minutes at pH 6.0, and following the addition of 8nM testosterone the assays were allowed to proceed for 20-40 minutes. The percentage of conversion of testosterone to DHT in the presence of test compounds compared to the corresponding conversion in the control study was estimated using high pressure liquid chromatography (HPLC) with radiochemical detection.

[2] = biological target: T2, human type 2 5α-reductase (Homo sapiens, UniProt P31213); experiment: 5α-reductase in vitro inhibitory activity, human type 2
T2 sequence (P31213 1-254): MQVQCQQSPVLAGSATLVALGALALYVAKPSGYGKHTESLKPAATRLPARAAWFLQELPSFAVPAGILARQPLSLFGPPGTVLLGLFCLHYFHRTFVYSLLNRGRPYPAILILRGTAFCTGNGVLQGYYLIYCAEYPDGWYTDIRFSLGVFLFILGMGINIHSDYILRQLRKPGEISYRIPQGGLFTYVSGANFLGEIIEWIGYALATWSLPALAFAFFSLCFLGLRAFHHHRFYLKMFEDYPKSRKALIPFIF
Method: as §1
(§2) The percentage of conversion of testosterone to DHT in the presence of test compounds compared to the corresponding conversion in the control study was estimated using high pressure liquid chromatography (HPLC) with radiochemical detection.

[3] = biological target: Rat Prostatic 5α-reductase; experiment: 5α-reductase in vitro inhibitory activity, rat prostatic; details: read-out: IC50 Rat Prostatic; microsomes derived from prostate tissue from the rat
Method: as §1, §2

[4] = read-out: IC50 Human Type 1, microsomes of recombinant baculovirus infected SF9 cells, preincubated 10 minutes at pH 7.0, 100nM testosterone, 1 mM NADPH
[5] = read-out: IC50 Human Type 2, microsomes, preincubated 20 minutes at pH 6.0, 8nM testosterone, 1 mM NADPH

| IC50 [1] [nM] | IC50 [2] [nM] | IC50 [3] [nM] | Molecule | IC50 [1, 4] [nM] | IC50 [2, 5] [nM] |
| --- | --- | --- | --- | --- | --- |
| 10 to 100 | < 10 | 10 to 100 | C[C@]12CC[C@H]3[C@@H](CNC4=CC(=O)CC[C@@]43C)[C@@H]1CC[C@@H]2C(=O)Nc1ccccc1Br [Compound 52, 17β-N-(2-Bromo)phenyl-carbamoyl-6-azaandrost-4-en-3-one] | – | – |
| > 100 | < 10 | 10 to 100 | CC(NC(=O)[C@H]1CC[C@H]2[C@@H]3CNC4=CC(=O)CC[C@]4(C)[C@H]3CC[C@]12C)C(c1ccccc1)c1ccccc1 (stereo partly drawn) [Compound 45, 17β-N-(2,2-Diphenyl-1-methyl)ethyl-carbamoyl-6-azaandrost-4-en-3-one] | – | – |
| > 100 | < 10 | < 10 | C[C@]12CC[C@H]3[C@@H](CNC4=CC(=O)CC[C@@]43C)[C@@H]1CC[C@@H]2C(=O)Nc1cccc2c1Cc1ccccc1-2 [Compound 15, 17β-N-1-Fluorenyl-carbamoyl-6-azaandrost-4-en-3-one] | – | – |
| 10 to 100 | < 10 | < 10 | C[C@]12CC[C@H]3[C@@H](CNC4=CC(=O)CC[C@@]43C)[C@@H]1CC[C@@H]2C(=O)NN(c1ccccc1)c1ccccc1 [Compound 25, 17β-N-(2,2-Diphenyl)-hydrazidyl-6-azaandrost-4-en-3-one] | – | – |
| 10 to 100 | < 10 | > 100 | C[C@]12CC[C@H]3[C@@H](CNC4=CC(=O)CC[C@@]43C)[C@@H]1CC[C@@H]2C(=O)Nc1cc(C(F)(F)F)ccc1Cl [Compound 44, 17β-N-(2-Chloro-5-trifluoromethyl)-phenyl-carbamoyl-6-azaandrost-4-en-3-one] | – | – |
| > 100 | < 10 | < 10 | CC(NC(=O)[C@H]1CC[C@H]2[C@@H]3CNC4=CC(=O)CC[C@]4(C)[C@H]3CC[C@]12C)c1ccccc1 (stereo partly drawn) [Compound 35, 17β-N-(1-Phenyl)ethyl-carbamoyl-6-azaandrost-4-en-3-one] | – | – |
| > 100 | < 10 | 10 to 100 | C[C@]12CC[C@H]3[C@@H](CNC4=CC(=O)CC[C@@]43C)[C@@H]1CC[C@@H]2C(=O)NC1c2ccccc2-c2ccccc21 [Compound 1, 17β-N-9-Fluorenyl-carbamoyl-6-azaandrost-4-en-3-one] | – | – |
| 10 to 100 | < 10 | < 10 | C[C@]12CC[C@H]3[C@@H](CNC4=CC(=O)CC[C@@]43C)[C@@H]1CC[C@@H]2C(=O)Nc1ccccc1-c1ccccc1 [Compound 53, 17β-N-(2-Phenyl)phenyl-carbamoyl-6-azaandrost-4-en-3-one] | – | – |
| 10 to 100 | < 10 | < 10 | CC12CCC(=O)C=C1NCC1C2CCC2(C)C(C(=O)Nc3ccccc3C(F)(F)F)CCC12 (stereo not drawn) [Compound 9, 17β-N-(2-Trifluoromethyl)phenyl-carbamoyl-6-azaandrost-4-en-3-one] | – | – |
| 10 to 100 | < 10 | < 10 | C[C@]12CC[C@H]3[C@@H](CNC4=CC(=O)CC[C@@]43C)[C@@H]1CC[C@@H]2C(=O)NC(c1ccc(F)cc1)c1cccs1 (stereo partly drawn) [Compound 18, 17β-N-(4-Fluorophenyl)(2-thiophene)methyl-carbamoyl-6-azaandrost-4-en-3-one] | – | – |
| 10 to 100 | < 10 | < 10 | C[C@]12CC[C@H]3[C@@H](CNC4=CC(=O)CC[C@@]43C)[C@@H]1CC[C@@H]2C(=O)NCCC(c1ccccc1)c1ccccc1 [Compound 16, 17β-N-(3,3-Diphenyl)propyl-carbamoyl-6-azaandrost-4-en-3-one] | – | – |
| 10 to 100 | < 10 | < 10 | C[C@]12CC[C@H]3[C@@H](CNC4=CC(=O)CC[C@@]43C)[C@@H]1CC[C@@H]2C(=O)NC(Cc1ccccc1)c1ccccc1 (stereo partly drawn) [Compound 17, 17β-N-(α-Phenyl)phenethyl-carbamoyl-6-azaandrost-4-en-3-one] | – | – |
| 10 to 100 | < 10 | < 10 | CC(Cc1ccccc1)NC(=O)C1CCC2C3CNC4=CC(=O)CCC4(C)C3CCC12C (stereo not drawn) [Compound 13, 17β-N-(α-Methyl)phenethyl-carbamoyl-6-azaandrost-4-en-3-one] | – | – |

The next lines start with the molecule.

| Molecule | IC50 [1] [nM] | IC50 [2] [nM] | IC50 [3] [nM] | IC50 [1, 4] [nM] | IC50 [2, 5] [nM] |
| --- | --- | --- | --- | --- | --- |
| C[C@]12CC[C@H]3[C@@H](CNC4=CC(=O)CC[C@@]43C)[C@@H]1CC[C@@H]2C(=O)NCc1ccc(F)cc1F [Compound 42, 17β-N-(2,4-Difluoro)benzyl-carbamoyl-6-azaandrost-4-en-3-one] | 10 to 100 | < 10 | < 10 | – | – |
| C[C@]12CC[C@H]3[C@@H](CNC4=CC(=O)CC[C@@]43C)[C@@H]1CC[C@@H]2COC(=O)C(c1ccccc1)c1ccccc1 [Compound 28, 17β-Hydroxymethyl-(2,2-diphenylacetate)-6-azaandrost-4-en-3-one] | 10 to 100 | 10 to 100 | < 10 | – | – |
| C[C@]12CC[C@H]3[C@@H](CNC4=CC(=O)CC[C@@]43C)[C@@H]1CC[C@@H]2C(=O)CC1CCCCC1 [Compound 2, 17β-(1-Oxo-2-cyclohexylethyl)-6-azaandrost-4-en-3-one] | < 10 | < 10 | < 10 | – | – |
| CCCCCCCCCCc1ccc(NC(=O)[C@H]2CC[C@H]3[C@@H]4CNC5=CC(=O)CC[C@]5(C)[C@H]4CC[C@]23C)cc1 [Compound 36, 17β-N-(4-Decyl)phenyl-carbamoyl-6-azaandrost-4-en-3-one] | > 100 | < 10 | < 10 | – | – |
| CC12CCC(=O)C=C1NCC1C2CCC2(C)C(C(=O)Nc3ccc(N4CCOCC4)cc3)CCC12 (stereo not drawn) [Compound 5, 17β-N-Phenyl-(4-morpholino)-carbamoyl-6-azaandrost-4-en-3-one] | > 100 | 10 to 100 | 10 to 100 | – | – |
| CC(C)c1cc(Br)c(NC(=O)[C@H]2CC[C@H]3[C@@H]4CNC5=CC(=O)CC[C@]5(C)[C@H]4CC[C@]23C)c(Br)c1 [Compound 49, 17β-N-(2,6-Dibromo-4-isopropyl)phenyl-carbamoyl-6-azaandrost-4-en-3-one] | < 10 | < 10 | < 10 | – | – |
| CC(C)(Cc1ccc(F)cc1)NC(=O)[C@H]1CC[C@H]2[C@@H]3CNC4=CC(=O)CC[C@]4(C)[C@H]3CC[C@]12C [Compound 32, 17β-N-(1,1-Dimethyl)-2-(4-fluorophenyl)ethyl-carbamoyl-6-azaandrost-4-en-3-one] | 10 to 100 | < 10 | < 10 | – | – |
| CC(C)c1cccc(C(C)C)c1NC(=O)[C@H]1CC[C@H]2[C@@H]3CNC4=CC(=O)CC[C@]4(C)[C@H]3CC[C@]12C [Compound 14, 17β-N-(2,6-Di-i-propyl)phenyl-carbamoyl-6-azaandrost-4-en-3-one] | 10 to 100 | < 10 | < 10 | – | – |
| CC(C)(C)C(=O)OCC1CCC2C3CNC4=CC(=O)CCC4(C)C3CCC12C (stereo not drawn) [Compound 3, 17β-Hydroxymethyl-(trimethylacetate)-6-azaandrost-4-en-3-one] | 10 to 100 | 10 to 100 | < 10 | – | – |
| CC(C)CC(=O)OC[C@H]1CC[C@H]2[C@@H]3CNC4=CC(=O)CC[C@]4(C)[C@H]3CC[C@]12C [Compound 27, 17β-Hydroxymethyl-(3-methylbutyrate)-6-azaandrost-4-en-3-one] | < 10 | < 10 | 10 to 100 | – | – |
| C[C@]12CC[C@H]3[C@@H](CNC4=CC(=O)CC[C@@]43C)[C@@H]1CC[C@@H]2C(=O)Nc1cc(C(F)(F)F)ccc1C(F)(F)F [Compound 50, 17β-N-(2,5-Ditrifluoromethyl)phenyl-carbamoyl-6-azaandrost-4-en-3-one] | < 10 | < 10 | 10 to 100 | – | – |
| 17β-N-(2-t-Butyl-5-(N-methyl)methylsulfonamide)phenyl-6-azaandrost-4-en-3-one [Compound 91] | – | – | 10 to 100 | 10 to 100 | < 10 |
| Cc1cc(C)c(NC(=O)[C@H]2CC[C@H]3[C@@H]4CNC5=CC(=O)CC[C@]5(C)[C@H]4CC[C@]23C)c(C)c1 [Compound 40, 17β-N-(2,4,6-Trimethyl)phenyl-carbamoyl-6-azaandrost-4-en-3-one] | 10 to 100 | < 10 | 10 to 100 | – | – |
| C[C@]12CC[C@H]3[C@@H](CNC4=CC(=O)CC[C@@]43C)[C@@H]1CC[C@@H]2C(=O)NCc1ccc(C(F)(F)F)cc1 [Compound 30, 17β-N-(4-Trifluoromethylphenyl)methyl-carbamoyl-6-azaandrost-4-en-3-one] | 10 to 100 | < 10 | 10 to 100 | – | – |
| C[C@]12CC[C@H]3[C@@H](CNC4=CC(=O)CC[C@@]43C)[C@@H]1CC[C@@H]2C(=O)Nc1ccc2c(c1)OCCO2 [Compound 6, 17β-N-4-Benzodioxan-carbamoyl-6-azaandrost-4-en-3-one] | – | – | 10 to 100 | > 100 | 10 to 100 |
| C[C@]12CC[C@H]3[C@@H](CNC4=CC(=O)CC[C@@]43C)[C@@H]1CC[C@@H]2C(=O)NC(C1CCCCC1)C1CCCCC1 [Compound 34, 17β-N-(Dicyclohexyl)methyl-carbamoyl-6-azaandrost-4-en-3-one] | 10 to 100 | < 10 | < 10 | – | – |
